Assay results from ChEMBL document CHEMBL1201862, “PubChem BioAssay data set” (2004).
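Protocol summary: plate cells (96-well), add compound at 5 concentrations, incubate 48 h, interpolate endpoints linearly. GI50 is the concentration that inhibits growth by half.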 Calls of active or inactive are those of the source. Cut-off read from the data, not from the text of the source: active = GI50 up to about 1.1 µM and inactive = higher.

Key:
Experiment in all cases: NCI anticancer screen, dose series, 48 h
[1] = test system: 786-0
[2] = test system: A498
[3] = test system: A549
[4] = test system: BT-549
[5] = test system: CAKI-1
[6] = test system: CCRF-CEM
[7] = test system: COLO 205
[8] = test system: DU-145
[9] = test system: EKVX
[10] = test system: HCC 2998
[11] = test system: HCT-116
[12] = test system: HCT-15
[13] = test system: HOP-62
[14] = test system: IGROV-1
[15] = test system: K562
[16] = test system: M14
[17] = test system: MCF7
[18] = test system: MDA-MB-231
[19] = test system: MDA-MB-435
[20] = test system: MDA-N
[21] = test system: MOLT-4
[22] = test system: Malme-3M
[23] = test system: NCI-H23
[24] = test system: NCI-H460
[25] = test system: NCI-H522
[26] = test system: OVCAR-3
[27] = test system: OVCAR-4
[28] = test system: OVCAR-5
[29] = test system: PC-3
[30] = test system: RXF 393
[31] = test system: SF-295
[32] = test system: SF-539
[33] = test system: SK-MEL-2
[34] = test system: SK-MEL-5
[35] = test system: SK-OV-3
[36] = test system: SN12C
[37] = test system: SR
[38] = test system: T47D
[39] = test system: TK-10
[40] = test system: U-251
[41] = test system: UACC-257
[42] = test system: UACC-62
[43] = test system: ACHN
[44] = test system: HL-60
[45] = test system: HOP-92
[46] = test system: HT-29
[47] = test system: Hs-578T
[48] = test system: LOX IMVI
[49] = test system: NCI-H226
[50] = test system: NCI/ADR-RES
[51] = test system: OVCAR-8
[52] = test system: RPMI-8226
[53] = test system: SF-268
[54] = test system: SK-MEL-28
[55] = test system: SNB-19
[56] = test system: SW-620
[57] = test system: UO-31
[58] = test system: KM12
[59] = test system: SNB-75

CCCc1n[nH]c(=O)n1N1C(=O)C=CC1=O
GI50 [1]: > 100 µM (inactive)
GI50 [2]: > 100 µM (inactive)
GI50 [3]: > 100 µM (inactive)
GI50 [4]: 30.5 µM (inactive)
GI50 [5]: > 100 µM (inactive)
GI50 [6]: > 100 µM (inactive)
GI50 [7]: > 100 µM (inactive)
GI50 [8]: > 100 µM (inactive)
GI50 [9]: > 100 µM (inactive)
GI50 [10]: > 100 µM (inactive)
GI50 [11]: > 100 µM (inactive)
GI50 [12]: > 100 µM
GI50 [13]: > 100 µM (inactive)
GI50 [14]: > 100 µM (inactive)
GI50 [15]: > 100 µM (inactive)
GI50 [16]: > 100 µM (inactive)
GI50 [17]: > 100 µM (inactive)
GI50 [18]: > 100 µM (inactive)
GI50 [19]: > 100 µM (inactive)
GI50 [20]: > 100 µM (inactive)
GI50 [21]: > 100 µM (inactive)
GI50 [22]: > 100 µM (inactive)
GI50 [23]: > 100 µM (inactive)
GI50 [24]: > 100 µM (inactive)
GI50 [25]: > 100 µM (inactive)
GI50 [26]: > 100 µM (inactive)
GI50 [27]: > 100 µM (inactive)
GI50 [28]: > 100 µM (inactive)
GI50 [29]: > 100 µM (inactive)
GI50 [30]: > 100 µM (inactive)
GI50 [31]: > 100 µM (inactive)
GI50 [32]: > 100 µM (inactive)
GI50 [33]: > 100 µM (inactive)
GI50 [34]: > 100 µM (inactive)
GI50 [35]: > 100 µM (inactive)
GI50 [36]: > 100 µM (inactive)
GI50 [37]: > 100 µM (inactive)
GI50 [38]: > 100 µM (inactive)
GI50 [39]: > 100 µM (inactive)
GI50 [40]: > 100 µM (inactive)
GI50 [41]: > 100 µM (inactive)
GI50 [42]: > 100 µM (inactive)

Cc1cccc(C)c1N1C(=O)C2c3[nH]c4ccccc4c3C3CCC(C(C)(C)C)CC3C2C1=O (centres undefined)
GI50 [1]: 8.67 µM (inactive)
GI50 [2]: 15.7 µM (inactive)
GI50 [3]: 12.3 µM (inactive)
GI50 [43]: 12.4 µM (inactive)
GI50 [4]: 20 µM (inactive)
GI50 [5]: 12.3 µM (inactive)
GI50 [6]: 12.6 µM (inactive)
GI50 [7]: 10.9 µM (inactive)
GI50 [8]: 8.45 µM (inactive)
GI50 [9]: 7.16 µM (inactive)
GI50 [10]: 3.85 µM (inactive)
GI50 [11]: 9.25 µM (inactive)
GI50 [12]: 11.4 µM
GI50 [44]: 12.8 µM (inactive)
GI50 [13]: 2.43 µM (inactive)
GI50 [45]: 6.32 µM (inactive)
GI50 [46]: 10.3 µM (inactive)
GI50 [47]: 16.6 µM (inactive)
GI50 [14]: 15 µM (inactive)
GI50 [15]: 9.06 µM (inactive)
GI50 [48]: 10.1 µM (inactive)
GI50 [16]: 13.6 µM (inactive)
GI50 [17]: 3.47 µM (inactive)
GI50 [18]: 11.9 µM (inactive)
GI50 [19]: 11.4 µM (inactive)
GI50 [20]: 11.5 µM (inactive)
GI50 [21]: 24.6 µM (inactive)
GI50 [22]: 14.4 µM (inactive)
GI50 [49]: 18.4 µM (inactive)
GI50 [23]: 14.8 µM (inactive)
GI50 [24]: 5.73 µM (inactive)
GI50 [50]: 13.8 µM (inactive)
GI50 [26]: 13.7 µM (inactive)
GI50 [28]: 24.6 µM (inactive)
GI50 [51]: 17 µM (inactive)
GI50 [29]: 6.44 µM (inactive)
GI50 [52]: 19.3 µM (inactive)
GI50 [30]: 8.97 µM (inactive)
GI50 [53]: 14.4 µM (inactive)
GI50 [31]: 17.3 µM (inactive)
GI50 [32]: 17.5 µM (inactive)
GI50 [54]: 19.9 µM (inactive)
GI50 [33]: 15.6 µM (inactive)
GI50 [34]: 14.3 µM (inactive)
GI50 [35]: 54.5 µM (inactive)
GI50 [36]: 10.2 µM (inactive)
GI50 [55]: 62.4 µM (inactive)
GI50 [37]: 9.91 µM (inactive)
GI50 [56]: 5.74 µM (inactive)
GI50 [39]: 17.6 µM (inactive)
GI50 [40]: 16.8 µM (inactive)
GI50 [41]: 16.5 µM (inactive)
GI50 [42]: 16.1 µM (inactive)
GI50 [57]: 10.8 µM (inactive)

C/C(=N\c1ccc(Cl)c(Cl)c1)c1ccncc1
GI50 [1]: > 100 µM (inactive)
GI50 [4]: > 100 µM (inactive)
GI50 [6]: > 100 µM (inactive)
GI50 [7]: > 100 µM (inactive)
GI50 [10]: > 10 µM (inactive)
GI50 [11]: > 100 µM (inactive)
GI50 [13]: > 100 µM (inactive)
GI50 [45]: > 100 µM (inactive)
GI50 [46]: > 100 µM (inactive)
GI50 [47]: > 100 µM (inactive)
GI50 [15]: > 100 µM (inactive)
GI50 [58]: > 100 µM (inactive)
GI50 [48]: > 100 µM (inactive)
GI50 [16]: > 100 µM (inactive)
GI50 [18]: > 100 µM (inactive)
GI50 [20]: > 100 µM (inactive)
GI50 [21]: > 100 µM (inactive)
GI50 [49]: > 100 µM (inactive)
GI50 [23]: > 100 µM (inactive)
GI50 [24]: > 100 µM (inactive)
GI50 [25]: > 100 µM (inactive)
GI50 [50]: > 100 µM (inactive)
GI50 [26]: > 100 µM (inactive)
GI50 [27]: > 100 µM (inactive)
GI50 [51]: > 100 µM (inactive)
GI50 [29]: > 100 µM (inactive)
GI50 [30]: > 100 µM (inactive)
GI50 [53]: > 100 µM (inactive)
GI50 [31]: > 100 µM (inactive)
GI50 [54]: > 100 µM (inactive)
GI50 [35]: > 100 µM (inactive)
GI50 [36]: > 100 µM (inactive)
GI50 [55]: > 100 µM (inactive)
GI50 [59]: > 100 µM (inactive)
GI50 [56]: > 100 µM (inactive)
GI50 [39]: > 100 µM (inactive)
GI50 [40]: > 100 µM (inactive)
GI50 [42]: > 100 µM (inactive)
